We go through three compounds from publication PMC10461823, “ABCH2 transporter mediates deltamethrin uptake and toxicity in the malaria vector Anopheles coluzzii” (PLOS Pathogens, 2023).

Assay [1] concerns the target T1, ABCH2 (Anopheles coluzzii, UniProt A0A6E8VHH0).
T1 construct: full ORF, codon-optimised for S. frugiperda, pFastBac1 baculovirus in Sf9 cells, untagged, membrane vesicles; about 85 kDa half-transporter, proposed homodimer
T1 sequence (A0A6E8VHH0 1-760): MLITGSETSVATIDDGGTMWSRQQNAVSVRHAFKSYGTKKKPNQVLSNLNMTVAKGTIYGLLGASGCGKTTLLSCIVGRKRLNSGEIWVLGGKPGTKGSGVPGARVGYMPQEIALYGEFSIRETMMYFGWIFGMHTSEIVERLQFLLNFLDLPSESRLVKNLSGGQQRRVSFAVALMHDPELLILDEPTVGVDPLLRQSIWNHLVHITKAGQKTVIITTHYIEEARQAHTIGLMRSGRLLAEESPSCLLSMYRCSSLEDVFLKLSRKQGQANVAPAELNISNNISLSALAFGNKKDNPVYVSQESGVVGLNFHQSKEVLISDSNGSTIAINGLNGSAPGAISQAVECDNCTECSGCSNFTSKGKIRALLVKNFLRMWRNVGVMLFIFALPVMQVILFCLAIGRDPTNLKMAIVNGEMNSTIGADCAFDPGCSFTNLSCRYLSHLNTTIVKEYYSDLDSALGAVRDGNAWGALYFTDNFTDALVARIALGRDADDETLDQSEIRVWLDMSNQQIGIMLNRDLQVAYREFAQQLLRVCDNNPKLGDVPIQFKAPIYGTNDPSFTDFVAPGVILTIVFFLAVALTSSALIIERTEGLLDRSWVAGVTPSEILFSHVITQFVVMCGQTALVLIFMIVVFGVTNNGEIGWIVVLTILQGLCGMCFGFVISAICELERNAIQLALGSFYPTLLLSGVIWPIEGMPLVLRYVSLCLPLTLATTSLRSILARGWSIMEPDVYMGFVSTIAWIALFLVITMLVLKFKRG
The experiment in a line: malachite green ATPase assay, Sf9 inverted membrane vesicles. It counts as biochemical. Particulars: basal activity without deltamethrin, 1 mM ATP, MgCl2, Tris pH 8, 37 C, 15 min; empty-bacmid background subtracted.

For assay [2], the target named is T1, ABCH2. The assay is described as above. The following applies: 120 uM deltamethrin, DMSO/ethanol, 1 mM ATP, MgCl2, Tris pH 8, 37 C, 15 min; empty-bacmid background subtracted; transport not shown directly. It is filed as biochemical.
For assay [3], the target named is ABCH2 transporter (ATP-Binding Cassette transporter from the H family) of Anopheles coluzzii (Anopheles coluzzii).

In the case of `Nc1ncnc2c1ncn2[C@@H]1O[C@H](COP(=O)(O)OP(=O)(O)OP(=O)(O)O)[C@@H](O)[C@H]1O` [ATP], in assay [1], the “malachite green ATPase assay, Sf9 inverted membrane vesicles” value was “indicate an ATP hydrolysis specific to ABCH2 expression”. For `CC1(C)[C@H](C(=O)O[C@H](C#N)c2cccc(Oc3ccccc3)c2)[C@@H]1C=C(Br)Br` [deltamethrin], the “fold stimulation of basal ATPase activity at 120 uM” value in assay [2] is ~ 1.6 fold. In the case of “ABCH2 transporter (ATP-Binding Cassette transporter from the H family) of Anopheles coluzzii (natural protein)”, the estimated basal rate of ATP hydrolysis of ABCH2 in inverted membrane vesicles of Sf9 cells expressing ABCH2 on its own (pmoles Pi/pmol ABCH2/minute) in assay [3] was 178.
